Measured values as given in PubChem BioAssay (NCI).
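Tested at 5 concentrations; 48 h exposure; 96-well plates; endpoints linearly interpolated, else capped at highest concentration. GI50: concentration for 50% inhibition of growth. TGI: total growth inhibition.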

What was measured:
Assay in all cases: NCI tumour cell line growth inhibition, 48 h
RXF 393 renal = tested on: RXF 393 renal
SK-MEL-2 melanoma = tested on: SK-MEL-2 melanoma
SF-539 CNS = tested on: SF-539 CNS
HL-60(TB) leukemia = tested on: HL-60(TB) leukemia
BT-549 breast = tested on: BT-549 breast
K-562 leukemia = tested on: K-562 leukemia
HS 578T breast = tested on: HS 578T breast
A498 renal = tested on: A498 renal
MDA-MB-435 = tested on: MDA-MB-435
SK-MEL-28 melanoma = tested on: SK-MEL-28 melanoma
SNB-19 CNS = tested on: SNB-19 CNS
NCI/ADR-RES ovarian = tested on: NCI/ADR-RES ovarian
SK-MEL-5 melanoma = tested on: SK-MEL-5 melanoma
SF-268 CNS = tested on: SF-268 CNS
U251 CNS = tested on: U251 CNS
HOP-92 NSCLC = tested on: HOP-92 NSCLC
MDA-MB-231 breast = tested on: MDA-MB-231 breast
TK-10 renal = tested on: TK-10 renal
NCI-H460 lung = tested on: NCI-H460 lung
NCI-H226 lung = tested on: NCI-H226 lung
OVCAR-4 ovarian = tested on: OVCAR-4 ovarian
KM12 colon = tested on: KM12 colon
SF-295 CNS = tested on: SF-295 CNS
CCRF-CEM leukemia = tested on: CCRF-CEM leukemia
OVCAR-8 ovarian = tested on: OVCAR-8 ovarian
SNB-75 CNS = tested on: SNB-75 CNS
ACHN renal = tested on: ACHN renal
SR leukemia = tested on: SR leukemia
T-47D breast = tested on: T-47D breast

## COc1cc(OC)c(/C=C/C(=O)c2c(OC)cccc2OC)c(OC)c1
RXF 393 renal
  GI50: 561 nM
  TGI: 2170 nM
SK-MEL-2 melanoma
  GI50: 807 nM
  TGI: > 100000 nM
SF-539 CNS
  GI50: 533 nM
  TGI: 4410 nM
HL-60(TB) leukemia
  GI50: 348 nM
  TGI: 1820 nM
BT-549 breast
  GI50: 300 nM
  TGI: 1840 nM
K-562 leukemia
  GI50: 444 nM
  TGI: > 100000 nM
HS 578T breast
  GI50: 1280 nM
  TGI: > 36300 nM
A498 renal
  GI50: 308 nM
MDA-MB-435
  GI50: 263 nM
  TGI: 1090 nM
SK-MEL-28 melanoma
  GI50: 1010 nM
  TGI: > 21300 nM
SNB-19 CNS
  GI50: 775 nM
  TGI: > 100000 nM
NCI/ADR-RES ovarian
  GI50: 387 nM
  TGI: > 25800 nM
SK-MEL-5 melanoma
  GI50: 348 nM
  TGI: 2490 nM
SF-268 CNS
  GI50: 1140 nM
  TGI: > 42100 nM
U251 CNS
  GI50: 592 nM
  TGI: > 100000 nM
HOP-92 NSCLC
  GI50: 222 nM
MDA-MB-231 breast
  GI50: 1070 nM
  TGI: > 100000 nM
TK-10 renal
  GI50: 5030 nM
  TGI: > 100000 nM
NCI-H460 lung
  GI50: 393 nM
  TGI: > 20300 nM
NCI-H226 lung
  GI50: 1990 nM
  TGI: > 100000 nM
OVCAR-4 ovarian
  GI50: 19700 nM
  TGI: > 100000 nM
KM12 colon
  GI50: 590 nM
  TGI: > 26000 nM
SF-295 CNS
  GI50: 395 nM
CCRF-CEM leukemia
  GI50: 1230 nM
  TGI: > 100000 nM
OVCAR-8 ovarian
  GI50: 1430 nM
  TGI: > 100000 nM
SNB-75 CNS
  GI50: 339 nM
ACHN renal
  GI50: 703 nM
  TGI: > 100000 nM
SR leukemia
  GI50: 517 nM
  TGI: > 100000 nM
T-47D breast
  GI50: 383 nM
